Earlier results as cited in patent publication US12527815B2, “Aqueous formulation including dissolved hydrogen gas and minerals and additives” (BEST PLANET SCIENCE LLC, priority 2023, dated 2026).

Conditions: partial pressure of one atm

Structure (SMILES): [HH] [hydrogen gas, hydrogen]
- equilibrium concentration (saturation) of hydrogen gas in water: 1.57 mg/L
